pKi: −log10 of the molar value.

From EP1914236A1 (Ortho-McNeil Pharmaceutical, Inc., priority 2002, dated 2003) come the findings set out here.

The target of this experiment is T1, human B2 bradykinin receptors (Homo sapiens, UniProt P30411).
T1 construct: purchased Receptor Biology, Inc. (Baltimore, MD); host or cells: CHO-K1 cells transfected with the human B2 receptor (membranes)
T1 sequence (P30411 1-391): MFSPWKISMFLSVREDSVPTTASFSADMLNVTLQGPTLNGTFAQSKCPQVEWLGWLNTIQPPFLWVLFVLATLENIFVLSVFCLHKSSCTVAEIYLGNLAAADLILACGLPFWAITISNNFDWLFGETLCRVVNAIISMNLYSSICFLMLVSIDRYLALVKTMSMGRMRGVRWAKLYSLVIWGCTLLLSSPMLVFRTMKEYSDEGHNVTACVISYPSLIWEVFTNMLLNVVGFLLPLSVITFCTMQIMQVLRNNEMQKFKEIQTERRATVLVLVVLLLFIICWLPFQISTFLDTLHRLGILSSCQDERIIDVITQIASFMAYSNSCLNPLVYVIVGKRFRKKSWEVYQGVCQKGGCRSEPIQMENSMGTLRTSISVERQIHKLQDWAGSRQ
The experiment is described as follows: Bradykinin B2 (BK2) Receptor Binding Assay. Particulars: membranes of CHO-K1 cells transfected with human B2 bradykinin receptors; ~0.25 nM [3H]NPC17731; 60 min at 25°C. The method, then: Cell membranes of CHO-K1 cells transfected with human B2 bradykinin receptors (CH)-hB2) were purchased from Receptor Biology, Inc. (Baltimore,MD).
Samples were harvested on a Brandel Cell Harvester on to Wallac filtermat B sheets (96 sample format), and washed three times with 2 mL cold HEPES-buffer (10 mM, pH 7.5), and dried in a microwave oven.
The data were used to calculate either the % inhibition compared to control binding (when only a single concentration of test compound was evaluated) or a Ki value (when a range of concentrations were tested). Background was subtracted from mean cpm values and % inhibition was calculated as: [(total dpm-test compound dpm)/(total dpm-nonspecific dpm)]x100. Kd and Ki values were calculated using GraphPad PRISM data analysis program.
The molecule “2-(5-Benzoyl-thiophen-2-yl)-N-[2,4-dimethyl-3-(2-methyl-quinolin-8-yloxymethyl)-phenyl]-N-methyl-acetamide [Compound 108]” gave a pKi of 7.05.
The figure for `Cc1ccc2cccc(OCc3c(Cl)ccc(N(C)C(=O)Cc4cc(C(=O)c5ccc(S(C)(=O)=O)cc5)cn4C)c3Cl)c2n1` [Compound 1, N-[2,4-Dichloro-3-(2-methyl-quinolin-8-yloxymethyl)-phenyl]-2-[4-(4-methanesulfonyl-benzoyl)-1-methyl-1 H-pyrrol-2-yl]-N-methyl-acetamide] is 5.54; for `COc1ccc(C(=O)c2cc(CC(=O)N(C)c3ccc(Cl)c(COc4cccc5ccc(C)nc45)c3Cl)n(C)c2)cc1` [Compound 2, N-[2,4-Dichloro-3-(2-methyl-quinolin-8-yloxymethyl)-phenyl]-2-[4-(4-methoxybenzoyl)-1-methyl-1 H-pyrrol-2-yl]-N-methyl-acetamide] it is 6.29.
`CCn1cc(CC(=O)N(C)c2ccc(Cl)c(COc3cccc4ccc(C)nc34)c2Cl)cc1C(=O)c1ccc(C#N)cc1` [Compound 3, 2-[5-(4-Cyano-benzoyl)-1-ethyl-1H-pyrrol-3-yl]-N-[2,4-dichloro-3-(2-methyl-quinolin-8-yloxymethyl)phenyl]-N-methyl-acetamide] showed a pKi of 6.27.
Take `Cc1ccc2cccc(OCc3c(Cl)ccc(N(C)C(=O)Cc4ccc(C(=O)c5ccc(C#N)cc5)[nH]4)c3Cl)c2n1` [Compound 6, 2-[5-(4-Cyano-benzoyl)-1 H-pyrrol-2-yl]-N-[2,4-dichloro-3-(2-methyl-quinolin-8-yloxymethyl)-phenyl]-N-methyl-acetamide]: the pKi is 7.39.
For `CCCN(C(=O)Cc1ccc(C(=O)c2ccc(C#N)cc2)n1C)c1ccc(Cl)c(COc2cccc3ccc(C)nc23)c1Cl` [Compound 19, 2-[5-(4-Cyano-benzoyl)-1-methyl-1H-pyrrol-2-yl]-N-[2,4-dichloro-3-(2-methyl-quinolin-8-yloxymethyl)-phenyl]-N-propyl-acetamide], the pKi is 5.41.
Under `C=CCN(C(=O)Cc1ccc(C(=O)c2ccc(C#N)cc2)n1C)c1ccc(Cl)c(COc2cccc3ccc(C)nc23)c1Cl` [Compound 21] stands 6.29; under `CCCCCC(=O)c1ccc(CC(=O)N(C)c2ccc(Cl)c(COc3cccc4ccc(C)nc34)c2Cl)n1C` [Compound 23, N-[2,4-Dichloro-3-(2-methyl-quinolin-8-yloxymethyl)-phenyl]-2-(5-hexanoyl-1-methyl-1H-pyrrol-2-yl)-N-methyl-acetamide], 5.27.
`Cc1ccc2cccc(OCc3c(Cl)ccc(N(C)C(=O)Cc4ccc(C(=O)CN(C)c5ccccc5)n4C)c3Cl)c2n1` [Compound 24]: the pKi was 5.27.
Turning to `Cc1ccc2cccc(OCc3c(Cl)ccc(N(C)C(=O)Cc4ccc(C(=O)c5ccc(Cl)s5)n4C)c3Cl)c2n1` [Compound 25], the pKi is 5.38.
`Cc1ccc2cccc(OCc3c(Cl)ccc(N(C)C(=O)Cc4ccc(C(=O)c5ccc6ccccc6c5)n4C)c3Cl)c2n1` [Compound 26]: the pKi is 5.39.
For the molecule `Cc1ccc2cccc(OCc3c(Cl)ccc(N(C)C(=O)Cc4ccc(C(=O)C=Cc5ccccc5)n4C)c3Cl)c2n1` [Compound 27], the pKi is 5.42.
With `Cc1ccc2cccc(OCc3c(Cl)ccc(N(C)C(=O)Cc4ccc(C(=O)Cc5ccccc5)n4C)c3Cl)c2n1` [Compound 28], the pKi was 5.63.
Under `Cc1ccc2cccc(OCc3c(Cl)ccc(N(C)C(=O)Cc4ccc(C(=O)c5ccccc5)n4C)c3Cl)c2n1` [Compound 29] stands 5.64; under `Cc1ccc2cccc(OCc3c(Cl)ccc(N(C)C(=O)Cc4ccc(C(=O)C5CCCCC5)n4C)c3Cl)c2n1` [Compound 30], 5.75; under `Cc1ccc2cccc(OCc3c(Cl)ccc(N(C)C(=O)Cc4ccc(C(=O)C(C)(C)C)n4C)c3Cl)c2n1` [Compound 31], 5.77.
Take `Cc1ccc2cccc(OCc3c(Cl)ccc(N(C)C(=O)Cc4ccc(C(=O)C5CC5)n4C)c3Cl)c2n1` [Compound 32]: the pKi is 5.82.
Molecule `Cc1ccc2cccc(OCc3c(Cl)ccc(N(C)C(=O)Cc4ccc(C(=O)c5cccnc5)n4C)c3Cl)c2n1` [Compound 33] showed a pKi of 5.86.
In the case of `Cc1ccc2cccc(OCc3c(Cl)ccc(N(C)C(=O)Cc4ccc(C(=O)c5ccc(F)cc5)n4C)c3Cl)c2n1` [Compound 34], the pKi is 5.94.
Turning to `Cc1ccc2cccc(OCc3c(Cl)ccc(N(C)C(=O)Cc4ccc(C(=O)c5ccc(Br)cc5)n4C)c3Cl)c2n1` [Compound 35], the pKi was 5.98.
With `CC(=O)Nc1ccccc1C(=O)c1ccc(CC(=O)N(C)c2ccc(Cl)c(COc3cccc4ccc(C)nc34)c2Cl)n1C` [Compound 36], the pKi was 6.06.
Take `Cc1ccc2cccc(OCc3c(Cl)ccc(N(C)C(=O)Cc4ccc(C(=O)CN5CCCC5)n4C)c3Cl)c2n1` [Compound 37]: the pKi is 6.07.
The molecule `Cc1ccc2cccc(OCc3c(Cl)ccc(N(C)C(=O)Cc4ccc(C(=O)c5cccc6ccccc56)n4C)c3Cl)c2n1` [Compound 38] showed a pKi of 6.09.
As for `CC(C)=CC(=O)c1ccc(CC(=O)N(C)c2ccc(Cl)c(COc3cccc4ccc(C)nc34)c2Cl)n1C` [Compound 39], the pKi was 6.11.
Regarding `Cc1ccc2cccc(OCc3c(Cl)ccc(N(C)C(=O)Cc4ccc(C(=O)c5ccc(Cl)cc5)n4C)c3Cl)c2n1` [Compound 40], the pKi was 6.12.
The figure for `Cc1ccc2cccc(OCc3c(Cl)ccc(N(C)C(=O)Cc4ccc(C(=O)c5ccc(C)s5)n4C)c3Cl)c2n1` [Compound 41] is 6.15.
In the case of `Cc1ccc2cccc(OCc3c(Cl)ccc(N(C)C(=O)Cc4ccc(C(=O)c5cccc([N+](=O)[O-])c5)n4C)c3Cl)c2n1` [Compound 42], the pKi is 6.16.
With `CSc1ccc(C(=O)c2ccc(CC(=O)N(C)c3ccc(Cl)c(COc4cccc5ccc(C)nc45)c3Cl)n2C)s1` [Compound 43], the pKi was 6.17.
In turn, `Cc1ccc2cccc(OCc3c(Cl)ccc(N(C)C(=O)Cc4ccc(C(=O)c5cccc(C#N)c5)n4C)c3Cl)c2n1` [Compound 44] gave a pKi of 6.19.
`Cc1ccc2cccc(OCc3c(Cl)ccc(N(C)C(=O)Cc4ccc(C(=O)c5ccccn5)n4C)c3Cl)c2n1` [Compound 45] had a pKi of 6.24.
The figure for `Cc1ccc2cccc(OCc3c(Cl)ccc(N(C)C(=O)Cc4ccc(C(=O)c5ccc(CN6CCCC6)cc5)n4C)c3Cl)c2n1` [Compound 46, N-[2,4-Dichloro-3-(2-methyl-quinolin-8-yloxymethyl)-phenyl]-N-methyl-2-[l-methyl-5-(4-pyrrolidin-1-ylmethyl-benzoyl)-1H-pyrrol-2-yl]-acetamide] is 6.25; for `Cc1ccc2cccc(OCc3c(Cl)ccc(N(C)C(=O)Cc4ccc(C(=O)c5ccc(CN(C)C)cc5)n4C)c3Cl)c2n1` [Compound 47] it is 6.29; for `CCN(CC)CC(=O)c1ccc(CC(=O)N(C)c2ccc(Cl)c(COc3cccc4ccc(C)nc34)c2Cl)n1C` [Compound 48] it is 6.29.
Consider `Cc1ccc2cccc(OCc3c(Cl)ccc(N(C)C(=O)Cc4ccc(C(=O)CN(C)c5ccccn5)n4C)c3Cl)c2n1` [Compound 49], for which the pKi is 6.29.
Under `Cc1ccc2cccc(OCc3c(Cl)ccc(N(C)C(=O)Cc4ccc(C(=O)c5ccc6c(c5)OCO6)n4C)c3Cl)c2n1` [Compound 50] stands 6.23; under `Cc1ccc2cccc(OCc3c(Cl)ccc(N(C)C(=O)Cc4ccc(C(=O)c5ccc(C(F)(F)F)cc5)n4C)c3Cl)c2n1` [Compound 51], 6.32.
`Cc1ccc2cccc(OCc3c(Cl)ccc(N(C)C(=O)Cc4ccc(C(=O)c5cnc(Cl)c(Cl)c5)n4C)c3Cl)c2n1` [Compound 52] gave a pKi of 6.37.
Under `Cc1ccc2cccc(OCc3c(Cl)ccc(N(C)C(=O)Cc4ccc(C(=O)c5ccccc5N)n4C)c3Cl)c2n1` [Compound 53] stands 6.41.
For `Cc1ccc(C(=O)c2ccc(CC(=O)N(C)c3ccc(Cl)c(COc4cccc5ccc(C)nc45)c3Cl)n2C)cc1` [Compound 54], the pKi was 6.45.
With `Cc1ccc2cccc(OCc3c(Cl)ccc(N(C)C(=O)Cc4ccc(C(=O)c5ccsc5)n4C)c3Cl)c2n1` [Compound 55], the pKi is 6.47.
`Cc1ccc2cccc(OCc3c(Cl)ccc(N(C)C(=O)Cc4ccc(C(=O)c5ccc(N)cc5)n4C)c3Cl)c2n1` [Compound 56, 2-[5-(4-Amino-benzoyl)-methyl-1H-pyrrol-2-yl]-N-[2,4-dichloro-3-(2-methyl-quinolin-8-yloxymethyl)-phenyl]-N-methyl-acetamide] showed a pKi of 6.39.
With `Cc1ccc2cccc(OCc3c(Cl)ccc(N(C)C(=O)Cc4ccc(C(=O)c5cccc(N)c5)n4C)c3Cl)c2n1` [Compound 57], the pKi is 6.44.
Consider `Cc1ccc2cccc(OCc3c(Cl)ccc(N(C)C(=O)Cc4ccc(C(=O)c5ccc(S(N)(=O)=O)cc5)n4C)c3Cl)c2n1` [Compound 70], for which the pKi was 6.79.
The figure for `CCOc1ccc(C(=O)c2ccc(CCC(=O)N(C)c3ccc(C)c(COc4cccc5ccc(C)nc45)c3C)n2C)cn1` [Compound 86] is 6.51.
